# Laboratory results as given in patent US11845752B2, “Substituted imidazo[1,5-a]pyrazines for the treatment of hepatitis B” (ALIGOS THERAPEUTICS, INC., priority 2020, dated 2023).
# System: HBV
# Experiment: HBV-DNA antiviral assay using HepG2.117 cells (intracellular HBV DNA by qPCR)
# Assay type: cell-based, HBV genotype D
# Settings: HBV DNA inhibition, 3 days incubation, read-out: EC50
# Outline: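 HepG2.117 cells (stably integrated genotype D HBV, Tet-off) seeded without doxycycline to induce pgRNA, then treated next day with 9 concentrations (4-fold dilutions, 2% DMSO) for 3 days at 37 °C. Intracellular HBV DNA quantified by qPCR against standard curve, viability by ATP content; inhibition relative to DMSO control, EC50/EC90/CC50 by non-linear regression.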
row,SMILES,EC50
1,"CC1Cn2c(c(C(=O)NCc3ccccc3-c3ncccn3)n(-c3ccc4c(cnn4C4CNC4)c3)c2=O)CN1C(=O)c1ccc(Br)c(C(F)(F)F)c1 (single isomer, unassigned) [Compound 109b]",500 to 5000 nM
2,"CC1Cn2c(c(C(=O)NCc3ccccc3-n3ccc(C(F)(F)F)n3)n(-c3ccc(N4CC5(CN(C)C5)C4)cc3)c2=O)CN1C(=O)c1ccc(Br)c(C(F)(F)F)c1 (single isomer, unassigned) [Compound 110b]",50 to 500 nM
3,"CC1Cn2c(c(C(=O)NCc3ccccc3-c3nnco3)n(-c3ccc(N4CC5(CN(C)C5)C4)cc3)c2=O)CN1C(=O)c1ccc(Br)c(C(F)(F)F)c1 (single isomer, unassigned) [Compound 112b]",500 to 5000 nM
4,"CC1(O)CCN(c2ccc(-n3c(C(=O)NCc4ccccc4)c4n(c3=O)CCN(C(=O)c3ccc(Br)c(Cl)c3)C4)cc2)C1 (single isomer, unassigned) [Compound 115b]",50 to 500 nM
5,"O=C(NCc1ccccc1-c1ncccn1)c1c2n(c(=O)n1-c1ccc(OC3CC3)cc1)CC(CN1CCOCC1)N(C(=O)c1ccc(Br)c(C(F)(F)F)c1)C2 (single isomer, unassigned) [Compound 132b]",500 to 5000 nM
6,"CC1Cn2c(c(C(=O)NCc3ccccc3-n3cc(F)cn3)n(-c3ccc(N4CCO[C@H](C)C4)cc3)c2=O)CN1C(=O)c1ccc(Br)c(Cl)c1 (stereo in doubt) [Compound 14b, (6S*)-7-(4-bromo-3-chloro-benzoyl)-N-[[2-(4-fluoropyrazol-1-yl)phenyl]methyl]-6-methyl-2-[4-[(2R)-2-methylmorpholin-4-yl]phenyl]-3-oxo-6,8-dihydro-5H-imidazo[1,5-a]pyrazine-1-carboxamide]",< 50 nM
7,"CC1Cn2c(c(C(=O)NCc3ccccc3-c3ccncn3)n(-c3ccc(N4CCO[C@H](C)C4)cc3)c2=O)CN1C(=O)c1ccc(Br)c(Cl)c1 (stereo in doubt) [Compound 15b, (6S*)-7-(4-bromo-3-chloro-benzoyl)-6-methyl-2-[4-[(2R)-2-methylmorpholin-4-yl]phenyl]-3-oxo-N-[(2-pyrimidin-4-ylphenyl)methyl]-6,8-dihydro-5H-imidazo[1,5-a]pyrazine-1-carboxamide]",< 50 nM
8,"CC1Cn2c(c(C(=O)NCc3ccccc3-c3ccncn3)n(-c3ccc(OC[C@@H](C)O)cc3)c2=O)CN1C(=O)c1ccc(Br)c(C(F)(F)F)c1 (stereo in doubt) [Compound 55b, (6S*)-7-[4-bromo-3-(trifluoromethyl)benzoyl]-2-{4-[(2R)-2-hydroxypropoxy]phenyl}-6-methyl-3-oxo-N-{[2-(pyrimidin-4-yl)phenyl]methyl}-5H,6H,8H-imidazo[1,5-a]pyrazine-1-carboxamide]",< 50 nM
9,"CC1Cn2c(c(C(=O)NCc3ccccc3-c3ncccn3)n(-c3ccc(OC[C@@H](O)C(F)(F)F)cc3)c2=O)CN1C(=O)c1ccc(Br)c(C(F)(F)F)c1 (stereo in doubt) [Compound 71b, (6S*)-7-[4-bromo-3-(trifluoromethyl)benzoyl]-6-methyl-3-oxo-N-{[2-(pyrimidin-2-yl)phenyl]methyl}-2-{4-[(2R)-3,3,3-trifluoro-2-hydroxypropoxy]phenyl}-5H,6H,8H-imidazo[1,5-a]pyrazine-1-carboxamide]",50 to 500 nM

# Same assay, conditions: Hepatitis B virus, HepG2.117, 72 h, HBV DNA inhibition, 3 days incubation, read-out: EC50
row,SMILES,EC50
1,"CC1Cn2c(c(C(=O)NCc3ccccc3-c3ncccn3)n(-c3ccc4c(cnn4C4CNC4)c3)c2=O)CN1C(=O)c1ccc(Br)c(C(F)(F)F)c1 (single isomer, unassigned) [Compound 109a]",500 to 5000 nM
2,"CC1Cn2c(c(C(=O)NCc3ccccc3-n3ccc(C(F)(F)F)n3)n(-c3ccc(N4CC5(CN(C)C5)C4)cc3)c2=O)CN1C(=O)c1ccc(Br)c(C(F)(F)F)c1 (single isomer, unassigned) [Compound 110a]",50 to 500 nM
3,"CC1Cn2c(c(C(=O)NCc3ccccc3-c3nnco3)n(-c3ccc(N4CC5(CN(C)C5)C4)cc3)c2=O)CN1C(=O)c1ccc(Br)c(C(F)(F)F)c1 (single isomer, unassigned) [Compound 112a]",500 to 5000 nM
4,"CC1(O)CCN(c2ccc(-n3c(C(=O)NCc4ccccc4)c4n(c3=O)CCN(C(=O)c3ccc(Br)c(Cl)c3)C4)cc2)C1 (single isomer, unassigned) [Compound 115a]",50 to 500 nM
5,"O=C(NCc1ccccc1)c1c2n(c(=O)n1-c1ccc(N3CC4CC[C@H]3CO4)cc1)CCN(C(=O)c1ccc(Br)c(Cl)c1)C2 (single isomer, unassigned) [Compound 125a]",50 to 500 nM
6,"O=C(NCc1ccccc1)c1c2n(c(=O)n1-c1ccc(N3CC4CC[C@@H]3CO4)cc1)CCN(C(=O)c1ccc(Br)c(Cl)c1)C2 (single isomer, unassigned) [Compound 125b]",50 to 500 nM
7,"O=C(NCc1ccccc1-c1ncccn1)c1c2n(c(=O)n1-c1ccc(OC3CC3)cc1)CC(CN1CCOCC1)N(C(=O)c1ccc(Br)c(C(F)(F)F)c1)C2 (single isomer, unassigned) [Compound 132a]",500 to 5000 nM
8,"CC1Cn2c(c(C(=O)NCc3ccccc3-n3cc(F)cn3)n(-c3ccc(N4CCO[C@H](C)C4)cc3)c2=O)CN1C(=O)c1ccc(Br)c(Cl)c1 (stereo in doubt) [Compound 14a, (6R*)-7-(4-bromo-3-chloro-benzoyl)-N-[[2-(4-fluoropyrazol-1-yl)phenyl]methyl]-6-methyl-2-[4-[(2R)-2-methylmorpholin-4-yl]phenyl]-3-oxo-6,8-dihydro-5H-imidazo[1,5-a]pyrazine-1-carboxamide]",50 to 500 nM
9,"CC1Cn2c(c(C(=O)NCc3ccccc3-c3ccncn3)n(-c3ccc(N4CCO[C@H](C)C4)cc3)c2=O)CN1C(=O)c1ccc(Br)c(Cl)c1 (stereo in doubt) [Compound 15a, (6R*)-7-(4-bromo-3-chloro-benzoyl)-6-methyl-2-[4-[(2R)-2-methylmorpholin-4-yl]phenyl]-3-oxo-N-[(2-pyrimidin-4-ylphenyl)methyl]-6,8-dihydro-5H-imidazo[1,5-a]pyrazine-1-carboxamide]",50 to 500 nM
10,"CNc1cc(-c2ccccc2CNC(=O)c2c3n(c(=O)n2-c2ccc(OC4CC4)cc2)C[C@@H](C)N(C(=O)c2ccc(Br)c(Cl)c2)C3)ncn1 (stereo in doubt) [Compound 39a, rac-(6R)-7-(4-bromo-3-chloro-benzoyl)-2-[4-(cyclopropoxy)phenyl]-(methylamino)pyrimidin-4-6-methyl-N-[[246-yl]phenyl]methyl]-3-oxo-6,8-dihydro-5H-imidazo[1,5-a]pyrazine-1-carboxamide]",50 to 500 nM
11,"CNc1cc(-c2ccccc2CNC(=O)c2c3n(c(=O)n2-c2ccc(OC4CC4)cc2)C[C@H](C)N(C(=O)c2ccc(Br)c(Cl)c2)C3)ncn1 (stereo in doubt) [Compound 39b, rac-(6S)-7-(4-bromo-3-chloro-benzoyl)-2-[4-(cyclopropoxy)phenyl]-6-methyl-N-[[246-(methylamino)pyrimidin-4-yl]phenyl]methyl]-3-oxo-6,8-dihydro-5H-imidazo[1,5-a]pyrazine-1-carboxamide]",< 50 nM
12,"CC1Cn2c(c(C(=O)NCc3ccccc3-c3ccncn3)n(-c3ccc(OC[C@@H](C)O)cc3)c2=O)CN1C(=O)c1ccc(Br)c(C(F)(F)F)c1 (stereo in doubt) [Compound 55a, (6R*)-7-[4-bromo-3-(trifluoromethyl)benzoyl]-2-{4-[(2R)-2-hydroxypropoxy]phenyl}-6-methyl-3-oxo-N-{[2-(pyrimidin-4-yl)phenyl]methyl}-5H,6H,8H-imidazo[1,5-a]pyrazine-1-carboxamide]",50 to 500 nM
13,C[C@H]1Cn2c(c(C(=O)NCc3ccccc3-c3ccncn3)n(-c3ccc(OC[C@@H](O)C(F)(F)F)cc3)c2=O)CN1C(=O)c1ccc(Br)c(C(F)(F)F)c1 (stereo in doubt) [Compound 62b],50 to 500 nM
14,"C[C@@H]1Cn2c(c(C(=O)NCc3ccccc3-c3ccncn3)n(-c3ccc(OC[C@H](O)C(F)(F)F)cc3)c2=O)CN1C(=O)c1ccc(Br)c(C(F)(F)F)c1 (stereo in doubt) [Compound 63a, (6RS)-7-[4-bromo-3-(trifluoromethyl)benzoyl]-6-methyl-3-oxo-N-[(2-pyrimidin-4-ylphenyl)methyl]-2-[4-[(25)-3,3,3-trifluoro-2-hydroxy-propoxy]phenyl]-6,8-dihydro-5H-imidazo[1,5-a]pyrazine-1-carboxamide]",< 50 nM
15,"CC1Cn2c(c(C(=O)NCc3ccccc3-c3ncccn3)n(-c3ccc(OC[C@@H](O)C(F)(F)F)cc3)c2=O)CN1C(=O)c1ccc(Br)c(C(F)(F)F)c1 (stereo in doubt) [Compound 71a, (6R*)-7-[4-bromo-3-(trifluoromethyl)benzoyl]-6-methyl-3-oxo-N-{[2-(pyrimidin-2-yl)phenyl]methyl}-2-{4-[(2R)-3,3,3-trifluoro-2-hydroxypropoxy]phenyl}-5H,6H,8H-imidazo[1,5-a]pyrazine-1-carboxamide]",< 50 nM
16,"C[C@@H]1Cn2c(c(C(=O)NCc3ccccc3-c3ccncn3)n(-c3ccc4c(cnn4CC(F)(F)F)c3)c2=O)CN1C(=O)c1ccc(Br)c(C(F)(F)F)c1 (stereo in doubt) [Compound 72a, rac-(6R)-7-[4-bromo-3-(trifluoromethyl)benzoyl]-6-methyl-3-oxo-N-[(2-pyrimidin-4-ylphenyl)methyl]-2-[1-(2,2,2-trifluoroethyl)indazol-5-yl]-6,8-dihydro-SH-imidazo[1,5-a]pyrazine-1-carboxamide]",< 50 nM
17,"C[C@H]1Cn2c(c(C(=O)NCc3ccccc3-c3ccncn3)n(-c3ccc4c(cnn4CC(F)(F)F)c3)c2=O)CN1C(=O)c1ccc(Br)c(C(F)(F)F)c1 (stereo in doubt) [Compound 72b, rac-(6S)-7-[4-bromo-3-(trifluoromethyl)benzoyl]-6-methyl-3-oxo-N-[(2-pyrimidin-4-ylphenyl)methyl]-2-[1-(2,2,2-trifluoroethyl)indazol-5-yl]-6,8-dihydro-SH-imidazo[1,5-a]pyrazine-1-carboxamide]",50 to 500 nM
